Tests used:
[1] = tested on: Patients aged over 60 years with lowered blood concentrations of free and total testosterone; assay: Total blood prostate-specific antigen (PSA) in the clinical trial; details: for PSA: mean ± SD, 15 patients
Source text: (§1) Reported here below is a clinical trial conducted in order to evaluate the activity of the combination according to the association in the treatment of the symptoms of male ageing.
(§2) Patients aged over 60 years with lowered blood concentrations of free and total testosterone (The Aging Male 4: 151-162, 2001) and complaining of symptoms figuring in the working definition of andropause proposed by the International Society for the Study of the Aging Male (I.S.S.A.M.) (The Aging Male 4: 151-162, 2001): reduced libido or sex drive and erectile function, depressed mood, difficulty concentrating, irritability and fatigue.
(§3) The above-mentioned compounds were presented to the patients in anonymous containers and administered for 6 months.
(§4) Medical history-taking and physical examinations were done for all patients. The following data were also collected prior to the start of treatment, after 1, 3 and 6 months of treatment: • 1. Total blood prostate-specific antigen (PSA) (ng/ml) as measured with the automatic test and monoclonal antibodies [Rigatti P., Scattoni V.: PSA: Antigene prostatico specifico. Edizioni Medico Scientifiche (EDIMES) Pavia, 1997]. • 2. Prostate volume (cm^3) as measured by suprapubic ultrasonography and calculated by means of the three diameters rule [Rigatti P. Scattoni V.: PSA: Antigene prostatico specifico. Edizioni Medico Scientifiche (EDIMES) Pavia, 1997]. • 3. Peak systolic volume (PSV) (cm/sec), end-diastolic velocity (EDV) (cm/sec), and Resistance Index (RI) (%) of the penile arteries (right and left cavernous e dorsal) as measured by means of penile basal and dynamic colour Doppler ultrasonography. RI was calculated as follows: (PSV-EDV/EDV)×100 (Urology 1997: 49: 822-830). • 4. Duration of full erections (in minutes) in the course of a recording period of three nights performed with Rigiscan. […] Free and total blood testosterone, LH and prolactin levels (The Aging Male 4: 151-162, 2001). • 6. Sexual function was checked by means of semistructured interviews and administration of the International Index of Erectile Function (IIEF-15) (Urology 1997: 49: 822-830). A score was calculated for each patient. • 7. Depression was quantified by means of the Hamilton Depression Scale questionnaire (DMS III) (Cancer 94: 2481-2489, 2002). A score was calculated for each patient. • 8. The subjective sensation of fatigue was calculated using the fatigue scale (Lison L.: Statistica applicata alla biologia sperimentale. Milano: Casa Editrice Ambrosiana, 1972). A score was calculated for each patient. • 9. Side effects. […]

[2] = tested on: Patients aged over 60 years with lowered blood concentrations of free and total testosterone; assay: Duration of full nocturnal erections, three nights by Rigiscan; format: in vivo, human; details: for Duration of full erections: three nights by Rigiscan, mean ± SD
Source text: as §1, §2, §3, §4

[3] = tested on: Patients aged over 60 years with lowered blood concentrations of free and total testosterone; assay: Blood levels of LH; format: in vivo, human; details: for LH: blood, mean ± SD
Source text: as §1, §2, §3
(§5) Medical history-taking and physical examinations were done for all patients. The following data were also collected prior to the start of treatment, after 1, 3 and 6 months of treatment: • 1. Total blood prostate-specific antigen (PSA) (ng/ml) as measured with the automatic test and monoclonal antibodies [Rigatti P., Scattoni V.: PSA: Antigene prostatico specifico. Edizioni Medico Scientifiche (EDIMES) Pavia, 1997]. • 2. Prostate volume (cm^3) as measured by suprapubic ultrasonography and calculated by means of the three diameters rule [Rigatti P. Scattoni V.: PSA: Antigene prostatico specifico. Edizioni Medico Scientifiche (EDIMES) Pavia, 1997]. • 3. Peak systolic volume (PSV) (cm/sec), end-diastolic velocity (EDV) (cm/sec), and Resistance Index (RI) (%) of the penile arteries (right and left cavernous e dorsal) as measured by means of penile basal and dynamic colour Doppler ultrasonography. RI was calculated as follows: (PSV-EDV/EDV)×100 (Urology 1997: 49: 822-830). • 4. Duration of full erections (in minutes) in the course of a recording period of three nights performed with Rigiscan. […] Free and total blood testosterone, LH and prolactin levels (The Aging Male 4: 151-162, 2001). • 6. Sexual function was checked by means of semistructured interviews and administration of the International Index of Erectile Function (IIEF-15) (Urology 1997: 49: 822-830). A score was calculated for each patient. • 7. Depression was quantified by means of the Hamilton Depression Scale questionnaire (DMS III) (Cancer 94: 2481-2489, 2002). A score was calculated for each patient. • 8. The subjective sensation of fatigue was calculated using the fatigue scale (Lison L.: Statistica applicata alla biologia sperimentale. Milano: Casa Editrice Ambrosiana, 1972). A score was calculated for each patient. • 9. Side effects.
(§6) Blood concentrations of PSA, free and total testosterone, prolactin LH, prostate volume, PSV, EDV, RI, full erection duration, IIEF-15, DMS III, and fatigue scale scores were compared between and within groups by means of factorial analysis of variance for randomised blocks (1 patient=1 block). Comparison of the mean values was done on the raw data with the exclusion of RI which used data subjected to angular transformation (sin^−1 √P/100) for the comparisons. Side effects were compared using the chi-square etst (Lison L.: Statistica applicata alla biologia sperimentale. Milano: Casa Editrice Ambrosiana, 1972).

[4] = tested on: Patients aged over 60 years with lowered blood concentrations of free and total testosterone; assay: Prostate volume by suprapubic ultrasonography (three diameters rule); details: mean ± SD
Source text: as §1, §2, §3
(§7) Medical history-taking and physical examinations were done for all patients. The following data were also collected prior to the start of treatment, after 1, 3 and 6 months of treatment: • 1. Total blood prostate-specific antigen (PSA) (ng/ml) as measured with the automatic test and monoclonal antibodies [Rigatti P., Scattoni V.: PSA: Antigene prostatico specifico. Edizioni Medico Scientifiche (EDIMES) Pavia, 1997]. • 2. Prostate volume (cm^3) as measured by suprapubic ultrasonography and calculated by means of the three diameters rule [Rigatti P. Scattoni V.: PSA: Antigene prostatico specifico. […] Peak systolic volume (PSV) (cm/sec), end-diastolic velocity (EDV) (cm/sec), and Resistance Index (RI) (%) of the penile arteries (right and left cavernous e dorsal) as measured by means of penile basal and dynamic colour Doppler ultrasonography. RI was calculated as follows: (PSV-EDV/EDV)×100 (Urology 1997: 49: 822-830). • 4. […] A score was calculated for each patient. • 7. Depression was quantified by means of the Hamilton Depression Scale questionnaire (DMS III) (Cancer 94: 2481-2489, 2002). A score was calculated for each patient. • 8. The subjective sensation of fatigue was calculated using the fatigue scale (Lison L.: Statistica applicata alla biologia sperimentale. Milano: Casa Editrice Ambrosiana, 1972). A score was calculated for each patient. • 9. […]

[5] = tested on: patients in the andropause; details: 40×2 mg/day; cited from earlier work
[6] = tested on: Patients aged over 60 years with lowered blood concentrations of free and total testosterone; assay: Blood levels of free testosterone; format: in vivo, human; details: mean ± SD
Source text: as §1, §2, §3, §7

[7] = tested on: Patients aged over 60 years with lowered blood concentrations of free and total testosterone; assay: Penile dynamic colour Doppler ultrasonography (PSV, EDV, RI of cavernous arteries); format: in vivo, human; details: mean ± SD
Source text: as §1, §2, §3, §5, §6

[8] = tested on: Patients aged over 60 years with lowered blood concentrations of free and total testosterone; assay: Fatigue scale; format: in vivo, human; details: for Fatigue scale score: mean ± SD
Source text: as §1, §2, §3, §5, §6

## testosterone undecaonate
[1]; 3 months of therapy
  PSA: 2.01 ± 0.79 ng/mL
[1]; 6 months of therapy
  PSA: 2.02 ± 0.85 ng/mL
[1]; before therapy
  PSA: 2.02 ± 0.74 ng/mL
[1]; during and after therapy vs before
  Change in blood PSA levels (in words): did not significantly increase
[2]; 3 months of therapy
  Duration of full erections: 112.7 ± 21.1 min
[2]; 6 months of therapy
  Duration of full erections: 119.6 ± 26.0 min
[2]; at 6 months
  Change in duration of full nocturnal erections (in words): significant increase
[2]; before therapy
  Duration of full erections: 108.3 ± 18.7 min
[3]; at 3 months, F=229 P<0.01
  Change in blood levels of LH (in words): statistically significant reduction
[3]; at 6 months
  Change in blood levels of LH (in words): significant reduction
[3]; 3 months of therapy
  LH: 4.3 ± 0.6 IU/l
[3]; 6 months of therapy
  LH: 4.2 ± 1.2 IU/l
[3]; before therapy
  LH: 8.9 ± 0.6 IU/l
[4]; 3 months of therapy
  Prostate volume: 15.5 ± 3.0 cm^3
[4]; 6 months of therapy
  Prostate volume: 15.5 ± 2.6 cm^3
[4]; before therapy
  Prostate volume: 15.3 ± 2.8 cm^3
[5]
  Benefit in patients in the andropause: fair amount of benefit
[6]; 3 months of therapy
  Free blood testosterone: 19.5 ± 4.2 pg/mL
[6]; 6 months of therapy
  Free blood testosterone: 19.7 ± 4.0 pg/mL
[6]; before therapy
  Free blood testosterone: 4.4 ± 0.8 pg/mL
[7]; 3 months of therapy
  Left cavernous PSV: 32.6 ± 4.2 cm/sec
  Left cavernous artery EDV: 7.5 ± 3.3 cm/s
  Right cavernous artery EDV: 7.9 ± 3.6 cm/s
  Right cavernous artery PSV: 32.8 ± 4.2 cm/sec
[7]; 6 months of therapy
  Left cavernous PSV: 33.5 ± 3.5 cm/sec
  Left cavernous artery EDV: 7.4 ± 3.3 cm/s
  Right cavernous artery EDV: 7.9 ± 3.6 cm/s
  Right cavernous artery PSV: 33.7 ± 3.7 cm/sec
[7]; before therapy
  Left cavernous PSV: 33.6 ± 3.7 cm/sec
  Left cavernous artery EDV: 7.7 ± 3.5 cm/s
  Right cavernous artery EDV: 7.8 ± 3.6 cm/s
  Right cavernous artery PSV: 33.2 ± 3.9 cm/sec
[8]; 3 months of therapy
  Fatigue scale score: 1.1 ± 1.0
[8]; 6 months of therapy
  Fatigue scale score: 0.6 ± 0.4
[8]; at 3 months, F=33.6, P<0.01
  Change in fatigue scale score (in words): statistically significant increase
[8]; at 6 months, F=5.9, P=n.s.
  Change in fatigue scale score (in words): no significant increase
